From the supplement of paper PMC11208160

Experiment: recombinant barcode read abundance after kanamycin selection (control-corrected) (log10(CPM+1)); higher = more efficient recombination; sequences stand for … in AGTGCAGAGAAAATCGGCCAGTTTTCTCTGCCTGCAGTCCGCATGCCGT…AGATTTATGCAGCGGACTGCCTTTCTCCCAAAGTGATAAACCGGACAGTATCATGGACCGGTTTTCCCGGTAATCCGTATTTGCAAGGTTGGTTTCACT; site = the 11-nt target
How it was run: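 Targets and IS621 bridge RNA target-binding loops were paired in oligos, each with a promoter, a barcode and the J23119-driven first 104 bridge RNA bases. A vector carrying the remaining 73 bp and a T7-inducible recombinase received these by Gibson cloning, and the pool was co-electroporated into E. coli with a donor plasmid. Duplicate plates contained chloramphenicol/ampicillin LB agar (control) or chloramphenicol/ampicillin/kanamycin with 0.1 mM IPTG. Recombination efficiency comes from averaged, control-corrected counts per million of recombinant-junction barcodes, reported as log10(CPM+1).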
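Note: IS621 recombinase and bridge RNA in Escherichia coli cells.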

In order of falling “recombinant barcode read abundance (log10)” value:
1. TATGTGTCTTGGGTTCTAACCTGTTGCCT (site TATGTGTCTAG)  2.01
2. TATGTGTCTTGGGTTCTAACCTGTTGCCT (site TAAGTGTCTAG)  1.67
3. TATGTACCTTGGGTTCTAACCTGTTGCCT (site TATGTACCTAG)  1.46
4. TATGTAGCTTGGGTTCTAACCTGTTGCCA (site TATGTAGCTTG)  1.05
5. TATTACCCTTGGGTTCTAACCTGTTGCCT (site TATTACCCTAG)  0.739
6. TATGTGGCTTGGGTTCTAACCTGTTGCCT (site TATGAGGCTAG)  0.551
7. TATGTGTCTTGGGTTCTAACCTGTTGCCT (site TACGTGTCTAG)  0.509
8. TATGCGCCTTGGGTTCTAACCTGTTGCCT (site TATGCGCCTAG)  0.327
9. TATCCTCCTTGGGTTCTAACCTGTTGCCG (site TATCCTCCTCG)  0.318
10. TATGTGGCTTGGGTTCTAACCTGTTGCCT (site TATGCGGCTAG)  0.296
11. TATGGGGCTTGGGTTCTAACCTGTTGCCT (site TATGGGGCTAG)  0.246
12. TATGTACCTTGGGTTCTAACCTGTTGCCT (site CATGTACCTAG)  0.234
13. TATTCTACTTGGGTTCTAACCTGTTGCGG (site TATTCTACTCC)  0.223
14. TATGTAGCTTGGGTTCTAACCTGTTGCCA (site TATGTAGCTAG)  0.22
15. TATGTAGCTTGGGTTCTAACCTGTTGCCA (site TATGTAGCTGG)  0.201
16. TATGTGGCTTGGGTTCTAACCTGTTGCCT (site TATGTGGCTAG)  0.179
17. TATCCTCCTTGGGTTCTAACCTGTTGCCG (site GTGGAGTCTAC)  0.177
18. TATTCTACTTGGGTTCTAACCTGTTGCGG (site TATTCTACTTC)  0.169
19. TATGCGCCTTGGGTTCTAACCTGTTGCCT (site CATGTGCCTAG)  0.149
20. TATGGGGCTTGGGTTCTAACCTGTTGCCT (site TATGAGGCTAG)  0.145
21. TATTACCCTTGGGTTCTAACCTGTTGCCT (site TATTATCCTAG)  0.12
22. TATGTACCTTGGGTTCTAACCTGTTGCCT (site GATGTACCTAG)  0.101
23. TATTCTACTTGGGTTCTAACCTGTTGCGG (site TATTCTACTGC)  0.101
24. TATCGGCCTTGGGTTCTAACCTGTTGCCT (site TATCGGCCTAG)  0.0996
25. TATTCTACTTGGGTTCTAACCTGTTGCGG (site TATTCTACTAC)  0.0937
26. TATCGGCCTTGGGTTCTAACCTGTTGCCT (site TAGCGGCCTAG)  0.0857
27. TATCGGCCTTGGGTTCTAACCTGTTGCCT (site TAACGGCCTAG)  0.0814
28. TATTACCCTTGGGTTCTAACCTGTTGCCT (site TATTAGCCTAG)  0.0773
29. TATGGGGCTTGGGTTCTAACCTGTTGCCT (site TATGCGGCTAG)  0.0621
30. TATCGGCCTTGGGTTCTAACCTGTTGCCT (site TACCGGCCTAG)  0.0568
31. TATGTACCTTGGGTTCTAACCTGTTGCCT (site AATGTACCTAG)  0.052
32. TATGGGGCTTGGGTTCTAACCTGTTGCCT (site TATGTGGCTAG)  0.0518
33. TATTACCCTTGGGTTCTAACCTGTTGCCT (site TATTAACCTAG)  0.035
34. TATGTAGCTTGGGTTCTAACCTGTTGCCA (site TATGTAGCTCG)  0.0344
35. TATGTGGCTTGGGTTCTAACCTGTTGCCT (site TATGGGGCTAG)  0.0271
36. TATGTGTCTTGGGTTCTAACCTGTTGCCT (site TAGGTGTCTAG)  0.0112
